# Experimental data from patent US20190345150A1, “MICROBIOCIDAL OXADIAZOLE DERIVATIVES” (SYNGENTA PARTICIPATIONS AG, priority 2016, published 2019).
# Assays:
# Phakopsora pachyrhizi = Phakopsora pachyrhizi / soybean / leaf disc preventative (Asian soybean rust); format: in vivo; details: foliar, 200 ppm in the applied formulation, soybean leaf disks, preventative (inoculated 1 day after application), compared to untreated control, read-out: disease control
# Description: Leaf disks or leaf segments of various plant species are cut from plants grown in a greenhouse. The cut leaf disks or segments are placed in multiwell plates (24-well format) onto water agar. The leaf disks are sprayed with a test solution before (preventative) or after (curative) inoculation. Compounds to be tested are prepared as DMSO solutions (max. 10 mg/ml) which are diluted to the appropriate concentration with 0.025% Tween20 just before spraying. The inoculated leaf disks or segments are incubated under defined conditions (temperature, relative humidity, light, etc.) according to the respective test system. A single evaluation of disease level is carried out 3 to 14 days after inoculation, depending on the pathosystem. Percent disease control relative to the untreated check leaf disks or segments is then calculated. Soybean leaf disks are placed on water agar in multiwell plates (24-well format) and sprayed with the formulated test compound diluted in water. One day after application leaf discs are inoculated by spraying a spore suspension on the lower leaf surface. After an incubation period in a climate cabinet of 24-36 hours in darkness at 20° C. and 75% rh leaf disc are kept at 20° C. with 12 h light/day and 75% rh. The activity of a compound is assessed as percent disease control compared to untreated when an appropriate level of disease damage appears in untreated check leaf disks (12 to 14 days after application).
# [1] = tested on: Glomerella laqenarium (Colletotrichum laqenarium); assay: Glomerella lagenarium liquid culture / cucumber / preventative (anthracnose); format: cell-based; details: 20 ppm in the applied formulation, liquid culture in PDB, growth inhibition measured photometrically 3 to 4 days after application, compared to untreated control, read-out: disease control
# Description: Mycelia fragments or conidia suspensions of a fungus prepared either freshly from liquid cultures of the fungus or from cryogenic storage, are directly mixed into nutrient broth. DMSO solutions of the test compound (max. 10 mg/ml) are diluted with 0.025% Tween20 by a factor of 50 and 10 μl of this solution is pipetted into a microtiter plate (96-well format). The nutrient broth containing the fungal spores/mycelia fragments is then added to give an end concentration of the tested compound. The test plates are incubated in the dark at 24° C. and 96% relative humidity. The inhibition of fungal growth is determined photometrically after 2 to 7 days, depending on the pathosystem, and percent antifungal activity relative to the untreated check is calculated. Conidia of the fungus from cryogenic storage are directly mixed into nutrient broth (PDB—potato dextrose broth). After placing a (DMSO) solution of test compound into a microtiter plate (96-well format), the nutrient broth containing the fungal spores is added. The test plates are incubated at 24° C. and the inhibition of growth is measured photometrically 3 to 4 days after application.
# [2] = tested on: Puccinia recondita f. Sp. Tritici; assay: Puccinia recondita f. sp. tritici / wheat / leaf disc preventative (brown rust); format: in vivo; details: foliar, 200 ppm in the applied formulation, wheat leaf segments cv. Kanzler, preventative (inoculated 1 day after application), compared to untreated control, read-out: disease control
# Description: Leaf disks or leaf segments of various plant species are cut from plants grown in a greenhouse. The cut leaf disks or segments are placed in multiwell plates (24-well format) onto water agar. The leaf disks are sprayed with a test solution before (preventative) or after (curative) inoculation. Compounds to be tested are prepared as DMSO solutions (max. 10 mg/ml) which are diluted to the appropriate concentration with 0.025% Tween20 just before spraying. The inoculated leaf disks or segments are incubated under defined conditions (temperature, relative humidity, light, etc.) according to the respective test system. A single evaluation of disease level is carried out 3 to 14 days after inoculation, depending on the pathosystem. Percent disease control relative to the untreated check leaf disks or segments is then calculated. Wheat leaf segments cv. Kanzler were placed on agar in multiwell plates (24-well format) and sprayed with the formulated test compound diluted in water. The leaf disks were inoculated with a spore suspension of the fungus 1 day after application. The inoculated leaf segments were incubated at 19° C. and 75% relative humidity (rh) under a light regime of 12 hours light/12 hours darkness in a climate cabinet and the activity of a compound was assessed as percent disease control compared to untreated when an appropriate level of disease damage appears in untreated check leaf segments (7 to 9 days after application).
# [3] = tested on: Puccinia recondita f. Sp. Tritici; assay: Puccinia recondita f. sp. tritici / wheat / leaf disc curative (brown rust); format: in vivo; details: foliar, 24 h, 200 ppm in the applied formulation, wheat leaf segments cv. Kanzler, curative (applied 1 day after inoculation), compared to untreated control, read-out: disease control
# Description: Leaf disks or leaf segments of various plant species are cut from plants grown in a greenhouse. The cut leaf disks or segments are placed in multiwell plates (24-well format) onto water agar. The leaf disks are sprayed with a test solution before (preventative) or after (curative) inoculation. Compounds to be tested are prepared as DMSO solutions (max. 10 mg/ml) which are diluted to the appropriate concentration with 0.025% Tween20 just before spraying. The inoculated leaf disks or segments are incubated under defined conditions (temperature, relative humidity, light, etc.) according to the respective test system. A single evaluation of disease level is carried out 3 to 14 days after inoculation, depending on the pathosystem. Percent disease control relative to the untreated check leaf disks or segments is then calculated. Wheat leaf segments cv. Kanzler are placed on agar in multiwell plates (24-well format). The leaf segments are then inoculated with a spore suspension of the fungus. Plates were stored in darkness at 19° C. and 75% relative humidity. The formulated test compound diluted in water was applied 1 day after inoculation. The leaf segments were incubated at 19° C. and 75% relative humidity under a light regime of 12 hours light/12 hours darkness in a climate cabinet and the activity of a compound was assessed as percent disease control compared to untreated when an appropriate level of disease damage appears in untreated check leaf segments (6 to 8 days after application).
smiles,measurement,setting,value
"C/C(=N/OCc1ccc(-c2noc(C(F)(F)F)n2)cc1)n1ccnc1 [Compound 4.2, (Z)-1-imidazol-1-yl-N-[[4-[5-(trifluoromethyl)-1,2,4-oxadiazol-3-yl]phenyl]methoxy]ethanimine]",pest or weed control at 200 ppm,Phakopsora pachyrhizi,≥ 80%
same,inhibition of growth at 20 ppm,[1],≥ 80%
same,pest or weed control at 200 ppm,[2],≥ 80%
same,pest or weed control at 200 ppm,[3],≥ 80%
same,melting point,,51 to 53 °C
